In the assay the target is T1, Human Neuropeptide Y2 Receptor (Homo sapiens, UniProt P49146).
T1 construct: purchased CHEMICON HTS066M
T1 sequence (P49146 1-381): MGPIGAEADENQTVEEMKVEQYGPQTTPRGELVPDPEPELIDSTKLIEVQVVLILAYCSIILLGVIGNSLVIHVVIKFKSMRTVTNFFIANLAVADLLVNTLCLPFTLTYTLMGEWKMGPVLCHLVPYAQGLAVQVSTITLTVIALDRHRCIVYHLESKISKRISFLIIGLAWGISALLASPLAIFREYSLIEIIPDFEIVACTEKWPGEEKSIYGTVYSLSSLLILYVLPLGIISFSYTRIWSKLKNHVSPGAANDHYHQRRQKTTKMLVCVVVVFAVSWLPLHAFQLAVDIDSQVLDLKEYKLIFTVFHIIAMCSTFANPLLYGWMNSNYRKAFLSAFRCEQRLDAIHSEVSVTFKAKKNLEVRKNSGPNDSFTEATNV
Kind of assay: Radioligand binding competition assay (RLB). Particulars: Table 3; human 125I-PYY (1-36) 0.02 nM, Y2 receptor membranes; read-out: Ki. The gist of the method:
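IC50 values come from nonlinear regression of sigmoidal dose-response curves of filter-bound radioactivity. Peptides competed with radioligand at human Y2 receptor membranes (0.5 μg protein/well) for 2 h at room temperature in pH 7.4 HEPES buffer containing Mg2+, Ca2+ and 0.2% ovalbumin.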

Each structure is given as a SMILES string.

Regarding `CC(C)CC(=O)N[C@@H](C)C(=O)N1CCC[C@H]1C(=O)N[C@@H](CCC(=O)O)C(=O)N[C@@H](CCCCNC(=O)COCCOCCNC(=O)COCCOCCNC(=O)CC[C@H](NC(=O)CCCCCCCCCCCCCCCCC(=O)O)C(=O)O)C(=O)N1CCC[C@H]1C(=O)N[C@@H](CCC(=O)O)C(=O)N[C@@H](CCC(=O)O)C(=O)N[C@@H](CCC(=O)O)C(=O)N[C@@H](C)C(=O)N[C@@H](CO)C(=O)N1CCC[C@H]1C(=O)N[C@@H](CCC(=O)O)C(=O)N[C@@H](CCC(=O)O)C(=O)N[C@@H](CC(C)C)C(=O)N[C@@H](CCC(N)=O)C(=O)N[C@@H](CCCNC(=N)N)C(=O)N[C@@H](Cc1ccc(O)cc1)C(=O)N[C@@H](Cc1ccc(O)cc1)C(=O)N[C@H](C(=O)N[C@H](C(=O)N[C@@H](CC(C)C)C(=O)N[C@@H](CCCNC(=N)N)C(=O)N[C@@H](Cc1c[nH]cn1)C(=O)N[C@@H](Cc1ccc(O)cc1)C(=O)N[C@@H](Cc1ccc(O)cc1)C(=O)N[C@@H](CC(N)=O)C(=O)N[C@@H](Cc1c[nH]c2ccccc12)C(=O)N[C@@H](CC(C)C)C(=O)N[C@H](C(=O)N[C@@H](CCCNC(=N)N)C(=O)N[C@@H](CCC(N)=O)C(=O)N[C@@H](CCCNC(=N)N)C(=O)N[C@@H](Cc1ccc(O)cc1)C(N)=O)[C@@H](C)O)[C@@H](C)O)C(C)C` [Compound 119, N{alpha-4}-(3-methylbutanoyl)-N{epsilon-7}-[2-(2-{2-[2-(2-{2-[(4S)-4-carboxy-4-(17-carboxyheptadecanamido)butanamido]ethoxy}ethoxy)acetamido]ethoxy}ethoxy)acetamido]-[4A,7K,9E,11E,18Q,22V,23T,28Y,30W,31L]hPYY (4-36)], the Ki is 3.32 nM.
Take `CC(C)CC(=O)N[C@@H](C)C(=O)N1CCC[C@H]1C(=O)N[C@@H](C)C(=O)N[C@@H](CCCCNC(=O)COCCOCCNC(=O)COCCOCCNC(=O)CC[C@H](NC(=O)CCCCCCCCCCCCCCCCC(=O)O)C(=O)O)C(=O)N1CCC[C@H]1C(=O)N[C@@H](CCC(=O)O)C(=O)N[C@@H](C)C(=O)N[C@@H](CC(=O)O)C(=O)N[C@@H](C)C(=O)N[C@@H](CO)C(=O)N1CCC[C@H]1C(=O)N[C@@H](CCC(=O)O)C(=O)N[C@@H](CCC(=O)O)C(=O)N[C@@H](CC(C)C)C(=O)N[C@@H](CCC(N)=O)C(=O)N[C@@H](CCCNC(=N)N)C(=O)N[C@@H](Cc1ccc(O)cc1)C(=O)N[C@@H](Cc1ccc(O)cc1)C(=O)N[C@H](C(=O)N[C@@H](CO)C(=O)N[C@@H](CC(C)C)C(=O)N[C@@H](CCCNC(=N)N)C(=O)N[C@@H](Cc1c[nH]cn1)C(=O)N[C@@H](Cc1ccc(O)cc1)C(=O)N[C@@H](Cc1ccc(O)cc1)C(=O)N[C@@H](CC(N)=O)C(=O)N[C@@H](Cc1c[nH]c2ccccc12)C(=O)N[C@@H](CC(C)C)C(=O)N[C@H](C(=O)N[C@@H](CCCNC(=N)N)C(=O)N[C@@H](CCC(N)=O)C(=O)N[C@@H](CCCNC(=N)N)C(=O)N[C@@H](Cc1ccc(O)cc1)C(N)=O)[C@@H](C)O)C(C)C` [Compound 121, N{alpha-4}-(3-methylbutanoyl)-N{epsilon-7}-[2-(2-{2-[2-(2-{2-[(4S)-4-carboxy-4-(17-carboxyheptadecanamido)butanamido]ethoxy}ethoxy)acetamido]ethoxy}ethoxy)acetamido]-[4A,6A,7K,9E,10A,18Q,22V,28Y,30W,31L]hPYY (4-36)]: the Ki turned out to be 0.61 nM.
